Experimental findings from ChEMBL document CHEMBL1201862, “PubChem BioAssay data set” (2004) are described below.

Some test systems named below: SW-620; SF-295; DU-145; COLO 205; LOX IMVI; HCT-116; SR; HT-29; MDA-MB-231; EKVX; HOP-62; MDA-N; HCT-15; NCI-H226; MCF7; K562; ACHN; T47D; MDA-MB-435; NCI-H23; SF-268; SK-OV-3; U-251; SK-MEL-5; CAKI-1; RPMI-8226; NCI/ADR-RES; UACC-62; SK-MEL-2; SNB-75; 786-0; HOP-92; NCI-H460; M14; A549; CCRF-CEM; OVCAR-4; MOLT-4; Malme-3M; IGROV-1; SK-MEL-28; RXF 393; HL-60; OVCAR-5; SF-539; HCC 2998.

Common to all, as to assay: NCI-60 cell line screen, 48 h

Structures are written as SMILES.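 48-hour exposure; five concentrations; linearly interpolated endpoints. At the GI50, growth is halved.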 Active and inactive are the calls of the source. No stated cut-off is given here; in the data, active = GI50 up to about 1.1 µM and inactive = higher.

As to `NNc1c(C(N)=O)c2c(N)ncnc2n1C1OC(CO)C(O)C1O` (configuration not stated), the GI50 with SW-620 is < 0.01 µM (active); in the assay on SF-295 it was 0.233 µM (active); with DU-145, < 0.01 µM (active); in the assay with COLO 205 it was 0.0129 µM (active); in the assay on LOX IMVI, 0.0112 µM (active); in the assay with HCT-116 it was 0.0119 µM (active). The GI50 was < 0.01 µM (active) with SR; 0.0198 µM (active) in the assay with HT-29; 0.0255 µM (active) in the assay with MDA-MB-231; 0.078 µM (active) in the assay on EKVX; 0.0196 µM (active) in the assay with HOP-62; 0.0261 µM (active) in the assay with MDA-N. Also, the GI50 was 0.0175 µM with HCT-15; 0.0536 µM (active) in the assay with NCI-H226; 0.0171 µM (active) in the assay on MCF7; 0.0451 µM (active) in the assay with K562; 0.0107 µM (active) in the assay on ACHN; < 0.01 µM (active) in the assay on T47D.

For the molecule `CCOC(=O)C1(C(=O)OCC)CCC(C(OC)OC)C(CC(=O)OC)C1` (configuration not stated), the GI50 in the assay with SW-620, in the assay on MDA-MB-435, in the assay on NCI-H23, in the assay on SF-268, in the assay with SK-OV-3 and in the assay on COLO 205 was > 10 µM (inactive) each time. The GI50 in the assay on U-251, in the assay on SK-MEL-5, with CAKI-1, in the assay on SR, in the assay with RPMI-8226 and with NCI/ADR-RES was > 10 µM (inactive) each time. In addition, the GI50 in the assay with UACC-62, in the assay with SK-MEL-2, with SNB-75, in the assay with HOP-62, in the assay on 786-0 and with HOP-92 was > 10 µM (inactive) each time. The GI50 in the assay on MCF7, with NCI-H460, with K562, in the assay with M14, in the assay on A549 and in the assay on CCRF-CEM was > 10 µM (inactive) throughout. Further, the GI50 in the assay with OVCAR-4, in the assay with ACHN, in the assay on MOLT-4, in the assay with Malme-3M, in the assay on IGROV-1 and in the assay with T47D was > 10 µM (inactive) each time. For the same molecule, the GI50 with SK-MEL-28, in the assay on RXF 393 and with HL-60 was > 10 µM (inactive) throughout.

In the case of `O=C1C(Cl)=C(N2CCN(CCOCCO)CC2)C(=O)c2c(O)ccc(O)c21`, the GI50 with DU-145 is 1.82 µM (inactive); in the assay with OVCAR-5, 1.87 µM (inactive); in the assay on SNB-75, 1.6 µM (inactive); in the assay on HOP-92, 0.237 µM (active); in the assay on HCT-15, 0.227 µM; with NCI-H226, 1.89 µM (inactive). Besides, the GI50 was 1.75 µM (inactive) with SF-539; 1.98 µM (inactive) with NCI-H460; 1.83 µM (inactive) with HCC 2998; 2.01 µM (inactive) in the assay with A549; 0.264 µM (active) with T47D.
